Laboratory results: publication PMC9154192 (PLoS Biology, 2022)
Read-outs that look alike come from different tables or passages of the source.

Assay type: in vivo, SD rats
Conditions: for Adrenal gland: Vacuolation, cortical, diffuse, Grade 1, no. of animals / Adrenal gland: Vacuolation, cortical, diffuse, Grade 2, no. of animals / Epididymis: Infiltrate, inflammatory cell, interstitum, Grade 1, no. of animals / Eye: Dysplasia, retina, focal, Grade 1, no. of animals / Harderian gland: Infiltrate, inflammatory cell, focal, Grade 1, no. of animals / Kidney: Basophilia, tubule, cortex, Grade 1, no. of animals / Kidney: Cast, hyaline, cortex, Grade 1, no. of animals / Kidney: Hydronephrosis, unilateral, Grade 3, no. of animals / Kidney: Infiltrate, inflammatory cell, interstitium, Grade 1, no. of animals / Kidney: Infiltrate, inflammatory cell, interstitium, Grade 2, no. of animals / Kidney: Mineralization, cortex, Grade 1, no. of animals / Kidney: Mineralization, corticomedullary junction, Grade 1, no. of animals / Kidney: Mineralization, medulla, Grade 1, no. of animals / Liver: Extramedullary hematopoiesis, Grade 1, no. of animals / Liver: Fatty change, sporadic/periportal, Grade 1, no. of animals / Liver: Fatty change, sporadic/periportal, Grade 2, no. of animals / Liver: Infiltrate, mononuclear cell, focal, Grade 1, no. of animals / Liver: Infiltrate, mononuclear cell, focal, Grade 2, no. of animals / Lung including bronchi: Alveolar macrophage aggregation, focal, Grade 1, no. of animals / Lung including bronchi: Infiltrate, mononuclear cell, alveolar, focal, Grade 1, no. of animals / Pituitary gland: Cyst, pars nervosa, Presence, no. of animals / Prostate: Infiltrate, inflammatory cell, interstitium, Grade 1, no. of animals / Salivary gland (parotid): Focus, hypertrophic, basophilic, focal, Grade 1, no. of animals / Spleen: Pigmentation, Grade 1, no. of animals / Submandibular lymph node: Increased, plasma cell, Grade 2, no. of animals / Thyroid gland: Ectopic thymus, Presence, no. of animals / Thyroid gland: Ultimobranchial cyst, Presence, no. of animals: female
Procedure: A subchronic toxicity study was performed for PP2S. Female and male rats were divided into a control group (0 mg/kg/day, n = 15), a low-dose group (167 mg/kg/day, n = 10), a medium-dose group (500 mg/kg/day, n = 10), and a high-dose group (1,500 mg/kg/day, n = 15), respectively. Thus, there were a total of 8 groups. The drug was administered by oral gavage at 10 mL/kg body weight daily for 4 weeks. Five animals each in the control and high-dose groups continued their treatments for 2 more weeks. Clinical symptoms were observed, and body weight was measured during the test period for a total of 6 weeks; 0.5% methyl cellulose 1,500 cP (Sigma, USA) in water for injection (JW Pharmaceutical, Korea) was used as a vehicle. Control animals were treated with only the same volume of the vehicle.
Histopathological examination was performed while performing a 4-week repeated oral toxicity study for PP2S. Organs and tissues from all animals subjected to autopsy were removed and fixed in 10% neutral buffered formalin. Among them, testes, eyeballs and optic nerve were fixed in Davidson's fixative and then in 10% neutral buffered formalin. For organs/tissues subjected to histopathological examination, specimens were prepared according to the histopathological specimen preparation SOP. For histopathological examination, organs and tissues of all subjects in the control group and the high-dose group, and macroscopically observed subjects in the low-dose group were examined. […] In addition, all other changes observed in histopathological examination were judged to be spontaneous or accidental. Those not specifically observed for all groups by organ were marked with a 'dash' symbol. Grade 1, minimal; Grade 2, slight; Grade 3, moderate; Grade 4, severe.

[1] = all groups (167, 500, 1,500 mg/kg; male, female; dosing and recovery period)
[2] = G2 167 mg/kg, dosing period, n=10
[3] = G3 500 mg/kg, dosing period, n=10
[4] = G4 1,500 mg/kg, dosing period, n=10
[5] = G4 1,500 mg/kg, recovery period, n=5

## CCCCOc1ccc2cc(CN3C(=O)CC[C@H]3C(=O)OC)c3cc(OC)c(OC)cc3c2c1 [PP2S, Methyl (S)-1-((3-butoxy-6,7-dimethoxyphenanthren-9-yl)methyl)-5-oxopyrrolidine-2-carboxylate]
All administration groups, 4-week repeated oral toxicity study
  histopathological change due to administration: no change was observed
[1]
  Histopathological findings: Brain: -
  Histopathological findings: Cecum: -
  Histopathological findings: Colon: -
  Histopathological findings: Duodenum: -
  Histopathological findings: Exophagus: -
  Histopathological findings: Femur including bone marrow: -
  Histopathological findings: Heart: -
  Histopathological findings: Ileum: -
  Histopathological findings: Jejunum: -
  Histopathological findings: Mammary gland (inguinal): -
  Histopathological findings: Mesenteric lymph node: -
  Histopathological findings: Optic nerve: -
  Histopathological findings: Pancreas: -
  Histopathological findings: Parathyroid gland: -
  Histopathological findings: Rectum: -
  Histopathological findings: Salivary gland (sublingual): -
  Histopathological findings: Salivary gland (submandibular): -
  Histopathological findings: Seminal vesicle: -
  Histopathological findings: Skin (inguinal): -
  Histopathological findings: Spinal cord (thoracic): -
  Histopathological findings: Sternum including bone marrow: -
  Histopathological findings: Stomach: -
  Histopathological findings: Testis: -
  Histopathological findings: Thymus: -
  Histopathological findings: Tongue: -
  Histopathological findings: Trachea: -
  Histopathological findings: Urinary bladder: -
  Histopathological findings: Uterus: -
  Histopathological findings: Vagina: -
[2]
  Adrenal gland: Vacuolation, cortical, diffuse, Grade 1, no. of animals: 0
  Adrenal gland: Vacuolation, cortical, diffuse, Grade 2, no. of animals: 0
  Epididymis: Infiltrate, inflammatory cell, interstitum, Grade 1, no. of animals: 0
  Eye: Dysplasia, retina, focal, Grade 1, no. of animals: 0
  Harderian gland: Infiltrate, inflammatory cell, focal, Grade 1, no. of animals: 0
  Kidney: Basophilia, tubule, cortex, Grade 1, no. of animals: 0
  Kidney: Cast, hyaline, cortex, Grade 1, no. of animals: 0
  Kidney: Hydronephrosis, unilateral, Grade 3, no. of animals: 0
  Kidney: Infiltrate, inflammatory cell, interstitium, Grade 1, no. of animals: 0
  Kidney: Infiltrate, inflammatory cell, interstitium, Grade 2, no. of animals: 0
  Kidney: Mineralization, cortex, Grade 1, no. of animals: 0
  Kidney: Mineralization, corticomedullary junction, Grade 1, no. of animals: 0
  Kidney: Mineralization, medulla, Grade 1, no. of animals: 0
  Liver: Extramedullary hematopoiesis, Grade 1, no. of animals: 0
  Liver: Fatty change, sporadic/periportal, Grade 1, no. of animals: 0
  Liver: Fatty change, sporadic/periportal, Grade 2, no. of animals: 0
  Liver: Infiltrate, mononuclear cell, focal, Grade 1, no. of animals: 0
  Liver: Infiltrate, mononuclear cell, focal, Grade 2, no. of animals: 0
  Lung including bronchi: Alveolar macrophage aggregation, focal, Grade 1, no. of animals: 0
  Lung including bronchi: Infiltrate, mononuclear cell, alveolar, focal, Grade 1, no. of animals: 0
  Pituitary gland: Cyst, pars nervosa, Presence, no. of animals: 0
  Prostate: Infiltrate, inflammatory cell, interstitium, Grade 1, no. of animals: 0
  Salivary gland (parotid): Focus, hypertrophic, basophilic, focal, Grade 1, no. of animals: 0
  Spleen: Pigmentation, Grade 1, no. of animals: 0
  Submandibular lymph node: Increased, plasma cell, Grade 2, no. of animals: 0
  Thyroid gland: Ectopic thymus, Presence, no. of animals: 0
  Thyroid gland: Ultimobranchial cyst, Presence, no. of animals: 0
[3]
  Adrenal gland: Vacuolation, cortical, diffuse, Grade 1, no. of animals: 0
  Adrenal gland: Vacuolation, cortical, diffuse, Grade 2, no. of animals: 0
  Epididymis: Infiltrate, inflammatory cell, interstitum, Grade 1, no. of animals: 0
  Eye: Dysplasia, retina, focal, Grade 1, no. of animals: 0
  Harderian gland: Infiltrate, inflammatory cell, focal, Grade 1, no. of animals: 0
  Kidney: Basophilia, tubule, cortex, Grade 1, no. of animals: 0
  Kidney: Cast, hyaline, cortex, Grade 1, no. of animals: 0
  Kidney: Hydronephrosis, unilateral, Grade 3, no. of animals: 0
  Kidney: Infiltrate, inflammatory cell, interstitium, Grade 1, no. of animals: 0
  Kidney: Infiltrate, inflammatory cell, interstitium, Grade 2, no. of animals: 0
  Kidney: Mineralization, cortex, Grade 1, no. of animals: 0
  Kidney: Mineralization, corticomedullary junction, Grade 1, no. of animals: 0
  Kidney: Mineralization, medulla, Grade 1, no. of animals: 0
  Liver: Extramedullary hematopoiesis, Grade 1, no. of animals: 0
  Liver: Fatty change, sporadic/periportal, Grade 1, no. of animals: 0
  Liver: Fatty change, sporadic/periportal, Grade 2, no. of animals: 0
  Liver: Infiltrate, mononuclear cell, focal, Grade 1, no. of animals: 0
  Liver: Infiltrate, mononuclear cell, focal, Grade 2, no. of animals: 0
  Lung including bronchi: Alveolar macrophage aggregation, focal, Grade 1, no. of animals: 0
  Lung including bronchi: Infiltrate, mononuclear cell, alveolar, focal, Grade 1, no. of animals: 0
  Pituitary gland: Cyst, pars nervosa, Presence, no. of animals: 0
  Prostate: Infiltrate, inflammatory cell, interstitium, Grade 1, no. of animals: 0
  Salivary gland (parotid): Focus, hypertrophic, basophilic, focal, Grade 1, no. of animals: 0
  Spleen: Pigmentation, Grade 1, no. of animals: 0
  Submandibular lymph node: Increased, plasma cell, Grade 2, no. of animals: 0
  Thyroid gland: Ectopic thymus, Presence, no. of animals: 0
  Thyroid gland: Ultimobranchial cyst, Presence, no. of animals: 0
[4]
  Adrenal gland: Vacuolation, cortical, diffuse, Grade 1, no. of animals: 0
  Adrenal gland: Vacuolation, cortical, diffuse, Grade 2, no. of animals: 0
  Epididymis: Infiltrate, inflammatory cell, interstitum, Grade 1, no. of animals: 0
  Eye: Dysplasia, retina, focal, Grade 1, no. of animals: 1
  Harderian gland: Infiltrate, inflammatory cell, focal, Grade 1, no. of animals: 0
  Kidney: Basophilia, tubule, cortex, Grade 1, no. of animals: 1
  Kidney: Cast, hyaline, cortex, Grade 1, no. of animals: 0
  Kidney: Hydronephrosis, unilateral, Grade 3, no. of animals: 1
  Kidney: Infiltrate, inflammatory cell, interstitium, Grade 1, no. of animals: 4
  Kidney: Infiltrate, inflammatory cell, interstitium, Grade 2, no. of animals: 0
  Kidney: Mineralization, cortex, Grade 1, no. of animals: 0
  Kidney: Mineralization, corticomedullary junction, Grade 1, no. of animals: 1
  Kidney: Mineralization, medulla, Grade 1, no. of animals: 0
  Liver: Extramedullary hematopoiesis, Grade 1, no. of animals: 0
  Liver: Fatty change, sporadic/periportal, Grade 1, no. of animals: 5
  Liver: Fatty change, sporadic/periportal, Grade 2, no. of animals: 1
  Liver: Infiltrate, mononuclear cell, focal, Grade 1, no. of animals: 2
  Liver: Infiltrate, mononuclear cell, focal, Grade 2, no. of animals: 2
  Lung including bronchi: Alveolar macrophage aggregation, focal, Grade 1, no. of animals: 0
  Lung including bronchi: Infiltrate, mononuclear cell, alveolar, focal, Grade 1, no. of animals: 0
  Pituitary gland: Cyst, pars nervosa, Presence, no. of animals: 0
  Prostate: Infiltrate, inflammatory cell, interstitium, Grade 1, no. of animals: 0
  Salivary gland (parotid): Focus, hypertrophic, basophilic, focal, Grade 1, no. of animals: 1
  Spleen: Pigmentation, Grade 1, no. of animals: 4
  Submandibular lymph node: Increased, plasma cell, Grade 2, no. of animals: 0
  Thyroid gland: Ectopic thymus, Presence, no. of animals: 2
  Thyroid gland: Ultimobranchial cyst, Presence, no. of animals: 4
[5]
  Adrenal gland: Vacuolation, cortical, diffuse, Grade 1, no. of animals: 0
  Adrenal gland: Vacuolation, cortical, diffuse, Grade 2, no. of animals: 0
  Epididymis: Infiltrate, inflammatory cell, interstitum, Grade 1, no. of animals: 0
  Eye: Dysplasia, retina, focal, Grade 1, no. of animals: 0
  Harderian gland: Infiltrate, inflammatory cell, focal, Grade 1, no. of animals: 0
  Kidney: Basophilia, tubule, cortex, Grade 1, no. of animals: 0
  Kidney: Cast, hyaline, cortex, Grade 1, no. of animals: 0
  Kidney: Hydronephrosis, unilateral, Grade 3, no. of animals: 0
  Kidney: Infiltrate, inflammatory cell, interstitium, Grade 1, no. of animals: 3
  Kidney: Infiltrate, inflammatory cell, interstitium, Grade 2, no. of animals: 0
  Kidney: Mineralization, cortex, Grade 1, no. of animals: 0
  Kidney: Mineralization, corticomedullary junction, Grade 1, no. of animals: 0
